Source: ChEMBL document CHEMBL1201862, “PubChem BioAssay data set” (2004)
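96-well plates; 48 h exposure; 5 concentrations. Endpoints by linear interpolation between flanking doses. Not reached: highest tested concentration assigned. GI50 is the concentration that inhibits growth by half.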 Activity calls are given as the source filed them. Rule as the data show it: active = GI50 up to about 1.1 µM and inactive = higher.

Experiments:
Experiment in all cases: NCI anticancer screen, dose series, 48 h
786-0 = system: 786-0
A549 = system: A549
ACHN = system: ACHN
CAKI-1 = system: CAKI-1
CCRF-CEM = system: CCRF-CEM
COLO 205 = system: COLO 205
DLD-1 = system: DLD-1
DMS-114 = system: DMS-114
DMS-273 = system: DMS-273
EKVX = system: EKVX
HCT-116 = system: HCT-116
HCT-15 = system: HCT-15
HL-60 = system: HL-60
HOP-18 = system: HOP-18
HOP-92 = system: HOP-92
HT-29 = system: HT-29
IGROV-1 = system: IGROV-1
K562 = system: K562
KM-20L2 = system: KM-20L2
LOX IMVI = system: LOX IMVI
LXFL 529 = system: LXFL 529
M14 = system: M14
M19-MEL = system: M19-MEL
MOLT-4 = system: MOLT-4
NCI-H23 = system: NCI-H23
NCI-H460 = system: NCI-H460
NCI-H522 = system: NCI-H522
OVCAR-8 = system: OVCAR-8
RPMI-8226 = system: RPMI-8226
RXF 393 = system: RXF 393
RXF 631 = system: RXF 631
SF-268 = system: SF-268
SF-539 = system: SF-539
SK-MEL-28 = system: SK-MEL-28
SK-MEL-5 = system: SK-MEL-5
SK-OV-3 = system: SK-OV-3
SN12C = system: SN12C
SNB-19 = system: SNB-19
SW-620 = system: SW-620
TK-10 = system: TK-10
U-251 = system: U-251
UACC-62 = system: UACC-62
UO-31 = system: UO-31
XF498 = system: XF498
A498 = system: A498
HCC 2998 = system: HCC 2998
HOP-62 = system: HOP-62
KM12 = system: KM12
Malme-3M = system: Malme-3M
NCI-H226 = system: NCI-H226
OVCAR-3 = system: OVCAR-3
OVCAR-4 = system: OVCAR-4
OVCAR-5 = system: OVCAR-5
SF-295 = system: SF-295
SK-MEL-2 = system: SK-MEL-2
SNB-75 = system: SNB-75
UACC-257 = system: UACC-257
SNB-78 = system: SNB-78
DU-145 = system: DU-145
Hs-578T = system: Hs-578T
MCF7 = system: MCF7
MDA-MB-231 = system: MDA-MB-231
MDA-MB-435 = system: MDA-MB-435
MDA-N = system: MDA-N
NCI/ADR-RES = system: NCI/ADR-RES
PC-3 = system: PC-3
SR = system: SR
T47D = system: T47D

Measured: GI50

Cn1nc(-c2ccccc2)c(C(=O)/C=C/c2ccc(F)cc2)c(N2CCCCC2)c1=O
inactive: 786-0 4.62 µM | A549 5.13 µM | ACHN 12.7 µM | CAKI-1 8.75 µM | CCRF-CEM 2.61 µM | COLO 205 4.12 µM | DLD-1 3.61 µM | DMS-114 3.86 µM | DMS-273 4.03 µM | EKVX 16.3 µM | HCT-116 3.31 µM | HOP-18 5.66 µM | HOP-92 3.85 µM | HT-29 5.32 µM | IGROV-1 11.5 µM | K562 3.39 µM | KM-20L2 5.18 µM | LOX IMVI 3.5 µM | LXFL 529 4.68 µM | M14 5.93 µM | M19-MEL 8.36 µM | MOLT-4 2.63 µM | NCI-H23 4.19 µM | NCI-H460 4.83 µM | NCI-H522 5.9 µM | OVCAR-8 5.81 µM | RPMI-8226 2.48 µM | RXF 393 2.53 µM | RXF 631 8.61 µM | SF-268 6.35 µM | SF-539 4.54 µM | SK-MEL-28 3.79 µM | SK-MEL-5 5.73 µM | SK-OV-3 15 µM | SN12C 8.39 µM | SNB-19 13.2 µM | SW-620 5.06 µM | TK-10 17.8 µM | U-251 5.74 µM | UACC-62 6.27 µM | UO-31 5.58 µM | XF498 21.1 µM
5.06 µM: HCT-15
active: HL-60 0.759 µM

O=C(CCn1[nH]c(=O)c(Cl)c(Cl)c1=O)NNC(=O)C[n+]1ccccc1
> 100 µM: HCT-15
inactive: 786-0 > 100 µM | A498 > 100 µM | A549 > 100 µM | ACHN > 100 µM | CAKI-1 > 100 µM | CCRF-CEM > 100 µM | COLO 205 > 100 µM | DLD-1 > 100 µM | DMS-114 > 100 µM | DMS-273 > 100 µM | EKVX > 100 µM | HCC 2998 > 100 µM | HL-60 > 100 µM | HOP-18 > 100 µM | HOP-62 > 100 µM | HT-29 > 100 µM | IGROV-1 > 100 µM | K562 > 100 µM | KM-20L2 > 100 µM | KM12 > 100 µM | LOX IMVI > 100 µM | LXFL 529 > 100 µM | M14 > 100 µM | M19-MEL > 100 µM | MOLT-4 > 100 µM | Malme-3M > 100 µM | NCI-H226 > 100 µM | NCI-H23 > 100 µM | NCI-H460 > 100 µM | NCI-H522 > 100 µM | OVCAR-3 > 100 µM | OVCAR-4 > 100 µM | OVCAR-5 > 100 µM | OVCAR-8 > 100 µM | RPMI-8226 > 100 µM | RXF 393 > 100 µM | RXF 631 > 100 µM | SF-268 > 100 µM | SF-295 > 100 µM | SF-539 > 100 µM | SK-MEL-28 > 100 µM | SK-MEL-2 > 100 µM | SK-MEL-5 > 100 µM | SK-OV-3 > 100 µM | SN12C > 100 µM | SNB-19 > 100 µM | SNB-75 52.4 µM | SW-620 > 100 µM | TK-10 > 100 µM | UACC-257 > 10 µM | UACC-62 > 100 µM | UO-31 > 100 µM | XF498 > 100 µM

CN(C)/C=N\c1cc[nH]c(=O)n1
> 100 µM: HCT-15
inactive: 786-0 > 100 µM | A498 > 100 µM | A549 > 100 µM | ACHN > 100 µM | CAKI-1 > 100 µM | CCRF-CEM > 100 µM | COLO 205 > 100 µM | DLD-1 > 100 µM | DMS-114 > 100 µM | DMS-273 > 100 µM | EKVX > 100 µM | HCT-116 > 100 µM | HL-60 > 100 µM | HOP-18 > 100 µM | HOP-62 > 100 µM | HOP-92 > 100 µM | HT-29 > 100 µM | IGROV-1 > 100 µM | K562 > 100 µM | KM-20L2 > 100 µM | KM12 > 100 µM | LOX IMVI > 100 µM | LXFL 529 > 100 µM | M14 > 100 µM | M19-MEL > 100 µM | Malme-3M > 100 µM | NCI-H226 > 100 µM | NCI-H460 > 100 µM | NCI-H522 > 100 µM | OVCAR-3 > 100 µM | OVCAR-4 > 100 µM | OVCAR-5 > 100 µM | OVCAR-8 > 100 µM | RPMI-8226 > 100 µM | RXF 393 > 100 µM | RXF 631 > 100 µM | SF-268 > 100 µM | SF-295 > 100 µM | SF-539 > 100 µM | SK-MEL-28 > 100 µM | SK-MEL-2 > 100 µM | SK-MEL-5 > 100 µM | SK-OV-3 > 100 µM | SN12C > 100 µM | SNB-75 > 100 µM | SNB-78 > 100 µM | SW-620 > 100 µM | TK-10 > 100 µM | U-251 > 100 µM | UACC-257 > 100 µM | UACC-62 > 100 µM | UO-31 > 100 µM | XF498 > 100 µM

COc1cc([C@H]2c3cc4c(cc3O[C@@]3(O)COC(=O)[C@@H]23)OCO4)cc(OC)c1OC
> 100 µM: HCT-15
inactive: 786-0 > 100 µM | A498 > 100 µM | A549 > 100 µM | ACHN > 100 µM | CAKI-1 > 100 µM | CCRF-CEM > 100 µM | COLO 205 > 100 µM | DLD-1 > 100 µM | DMS-114 > 100 µM | DMS-273 > 100 µM | DU-145 > 100 µM | EKVX > 100 µM | HCC 2998 > 100 µM | HCT-116 > 100 µM | HL-60 > 100 µM | HOP-18 > 100 µM | HOP-62 > 100 µM | HOP-92 > 100 µM | HT-29 > 100 µM | Hs-578T > 100 µM | IGROV-1 > 100 µM | K562 > 100 µM | KM-20L2 > 100 µM | KM12 > 100 µM | LOX IMVI > 100 µM | M14 > 100 µM | M19-MEL > 100 µM | MCF7 > 100 µM | MDA-MB-231 > 100 µM | MDA-MB-435 > 100 µM | MDA-N > 100 µM | MOLT-4 > 100 µM | Malme-3M > 100 µM | NCI-H226 > 100 µM | NCI-H23 > 10 µM | NCI-H460 > 100 µM | NCI-H522 > 100 µM | NCI/ADR-RES > 100 µM | OVCAR-3 > 100 µM | OVCAR-4 > 100 µM | OVCAR-5 > 100 µM | OVCAR-8 > 100 µM | PC-3 > 100 µM | RPMI-8226 > 100 µM | RXF 393 > 10 µM | RXF 631 > 100 µM | SF-268 > 100 µM | SF-295 > 100 µM | SF-539 > 100 µM | SK-MEL-28 > 100 µM | SK-MEL-2 > 100 µM | SK-MEL-5 > 100 µM | SK-OV-3 > 100 µM | SN12C > 100 µM | SNB-19 > 100 µM | SNB-75 > 100 µM | SNB-78 > 100 µM | SR > 100 µM | SW-620 > 100 µM | T47D > 100 µM | TK-10 > 100 µM | U-251 > 100 µM | UACC-257 > 100 µM | UACC-62 > 100 µM | UO-31 > 100 µM | XF498 > 100 µM

O=c1[nH]cc(C(F)(C(F)(F)F)C(F)(F)F)c(=O)[nH]1
> 100 µM: HCT-15
inactive: 786-0 > 100 µM | A498 > 100 µM | A549 > 100 µM | ACHN > 100 µM | CAKI-1 > 100 µM | CCRF-CEM > 100 µM | COLO 205 > 100 µM | DLD-1 > 100 µM | DMS-114 > 100 µM | DMS-273 > 100 µM | EKVX > 100 µM | HCT-116 > 100 µM | HL-60 > 100 µM | HOP-18 > 100 µM | HOP-62 > 100 µM | HOP-92 > 100 µM | HT-29 > 100 µM | IGROV-1 > 100 µM | K562 > 100 µM | KM-20L2 > 100 µM | KM12 > 100 µM | LOX IMVI > 100 µM | LXFL 529 > 100 µM | M14 > 100 µM | M19-MEL > 100 µM | MOLT-4 > 100 µM | Malme-3M > 100 µM | NCI-H226 > 100 µM | NCI-H23 > 100 µM | NCI-H460 > 100 µM | NCI-H522 > 100 µM | OVCAR-3 > 100 µM | OVCAR-4 > 100 µM | OVCAR-5 > 100 µM | OVCAR-8 > 100 µM | RPMI-8226 > 100 µM | RXF 393 > 100 µM | RXF 631 > 100 µM | SF-268 > 100 µM | SF-295 > 100 µM | SF-539 > 100 µM | SK-MEL-28 > 100 µM | SK-MEL-2 > 100 µM | SK-MEL-5 > 100 µM | SK-OV-3 > 100 µM | SN12C > 100 µM | SNB-19 > 100 µM | SNB-75 > 100 µM | SNB-78 > 100 µM | SW-620 > 100 µM | TK-10 > 100 µM | U-251 > 100 µM | UACC-257 > 100 µM | UACC-62 > 100 µM | UO-31 > 100 µM | XF498 > 100 µM
